From the SangsterLogP compilation

Assay: method code SF-AS, from PMID: 594121
Conditions: for logD: pH 7.4

| SMILES | logD | logP |
| --- | --- | --- |
| O=C(CN1CCCCC1)Nc1ccc([N+](=O)[O-])cc1 | 2.25 |  |
| O=C(CN1CCCCC1)Nc1ccc(F)cc1 |  | 2.7 |
| COc1ccccc1NC(=O)CN1CCCCC1 |  | 2.85 |
| O=C(CN1CCCCC1)Nc1ccccc1[N+](=O)[O-] |  | 2.75 |
| CCOc1ccc(NC(=O)CN2CCCCC2)cc1 | 2.82 |  |
| O=C(CN1CCCCC1)Nc1ccc(I)cc1 | 3.21 |  |
| O=C(CN1CCCCC1)Nc1ccccc1C(F)(F)F |  | 3.09 |
| O=C(CN1CCCCC1)Nc1cccc([N+](=O)[O-])c1 |  | 2.59 |
| O=C(CN1CCCCC1)Nc1cccc(C(F)(F)F)c1 |  | 3.12 |
| COc1cccc(NC(=O)CN2CCCCC2)c1 |  | 2.71 |
| CCOc1ccccc1NC(=O)CN1CCCCC1 |  | 3.04 |
| O=C(CN1CCCCC1)Nc1ccc(C(F)(F)F)cc1 |  | 3.06 |
| CCOc1cccc(NC(=O)CN2CCCCC2)c1 |  | 3.17 |

More lines, now with the values ahead:

| logD | logP | SMILES |
| --- | --- | --- |
| 2.93 |  | O=C(CN1CCCCC1)Nc1cccc(Br)c1 |
|  | 2.94 | O=C(CN1CCCCC1)Nc1ccccc1Br |
|  | 2.76 | O=C(CN1CCCCC1)Nc1ccccc1Cl |
|  | 2.26 | Cc1ccccc1NC(=O)CN1CCCCC1 |
|  | 3.45 | O=C(CN1CCCCC1)Nc1cccc(Cl)c1 |
|  | 2.95 | Cc1ccc(NC(=O)CN2CCCCC2)cc1 |
| 3.23 |  | O=C(CN1CCCCC1)Nc1cccc(I)c1 |
|  | 2.16 | O=C(CN1CCCCC1)Nc1ccccc1F |
|  | 2.97 | Cc1cccc(NC(=O)CN2CCCCC2)c1 |
|  | 2.85 | O=C(CN1CCCCC1)Nc1cccc(F)c1 |
| 2.41 |  | O=C(CN1CCCCC1)Nc1ccccc1 |
| 2.88 |  | O=C(CN1CCCCC1)Nc1ccc(Br)cc1 |
